{
  "source": "patent US8759403B2",
  "about": "“Curcuminoids and its metabolites for the application in allergic ocular/nasal conditions” (Laila Pharmaceutical Pvt. Ltd., priority 2009, dated 2014)",
  "origin": "cited, not measured here",
  "key": {"guinea pigs": {"system": "guinea pigs", "settings": "20 mg/kg body weight"}, "murine model of allergy": {"system": "murine model of allergy", "settings": "mouse, in vivo"}},
  "data": [
    {"smiles": "COc1cc(/C=C/C(=O)CC(=O)/C=C/c2ccc(O)c(OC)c2)ccc1O", "note": "[curcumin]", "values": [
      {"measurement": "airway hyper reactivity", "setting": "guinea pigs; p<0.0043", "result": "significantly inhibits"},
      {"measurement": "OVA-induced airway constriction", "setting": "guinea pigs; p<0.0399", "result": "significantly inhibits"},
      {"measurement": "histamine release from mast cells", "setting": "mast cells", "result": "inhibitory effect"},
      {"measurement": "allergic response in treated animals", "setting": "murine model of allergy", "result": "marked inhibition of allergic response"}
    ]}
  ]
}
